Experiments:
[1] = system: S. aureus; assay: In vitro zone of inhibition assay of coated K-wires; type: cell-based, Staphylococcus aureus; details: 6 weeks room temperature, 6 weeks −20° C., 8 months
Source text: A zone of inhibition assay was used as an additional assay to evaluate the in vitro release of antibiotic(s) from the composite coating. Tryptic soy agar bacterial plates were inoculated with S. aureus bacteria cells to yield a bacterial lawn after overnight culture. After bacterial inoculation and before culturing the plates, two identical titanium K-wires loaded with either 10 w/w % Lin, 10 w/w % Van, or 10 w/w % Dap alone, or in combination with Rif were placed in two separate areas on the plate. After culturing the plates at 37° C. for 24 hours, the antimicrobial activity of the eluded antibiotic(s) into the agar was measured as a zone of inhibition (diameter [mm]) of the bacterial growth around the K-wire.
Long-term efficacy of the antimicrobial activity was tested by storing electrospun pins at room temperature for 6 weeks, −20° C. for 6 weeks, and −80° C. for 8 months. Coated pins were protected from light during storage. These pins were then used in the same zone of inhibition assay as described hereinabove. These antimicrobial results were further confirmed with a two-week in vitro release study to determine release kinetics after storage.
Tryptic soy agar (TSA) bacterial plates were inoculated with S. aureus to yield a bacterial lawn after overnight culture. Before culturing the plates, two titanium K-wires each loaded with the same combination of antibiotics from each set were placed in two separate areas on the plate. After culturing at 37° C. for 24 hours, the zone of inhibition (ZOI) (diameter/mm) of bacterial growth were measured.

[2] = system: S. aureus strain Xen36; assay: MIC of XEN36 for each antibiotic; type: cell-based, Staphylococcus aureus; details: S. aureus XEN36; for MIC: Staphylococcus aureus, read-out: MIC of XEN36
Experimental: S. aureus strain Xen36 (PerkinElmer, Waltham, Mass.) previously derived from the clinical bacteremia isolate ATCC 49525 (Wright) was used in all experiments. (Francis et al., 2000). […] (Francis et al., 2000). Xen36 was prepared for inoculation as previously described. (Niska et al., 2013; Pribaz et al. (2012)).

[3] = Release kinetics of antibiotics from nanofiber-hydrogel composite sheet (HPLC); type: physicochemical
Source text: A sheet device was designed with the goal of reinforcing the implant soft tissue pocket, as well as serving as a platform for the local delivery of antibiotics. The device was composed of a polycaprolactone (PCL) nanofiber sheet core embedded within a nanofiber-hydrogel composite scaffold. The nanofiber core was created via random-pattern electrospinning of PCL dissolved in an organic solvent. An antibiotic-containing version was created by adding 1% w/w of linezolid and rifampicin to the starting PCL solution. All materials containing rifampicin were protected from light exposure to minimize risk of degradation. Next a composite scaffold was prepared by interfacially bonding 500-nm PCL nanofibers suspended within a hyaluronic acid matrix. The nanofiber sheet was then embedded within the composite scaffold and shaped to form a 1-mm thick sheet device. Release kinetics of each antibiotic were assessed using high-performance liquid chromatography (HPLC).

[4] = In vitro release of antibiotics from PLGA/PCL composite coatings on titanium K-wires (HPLC); type: physicochemical; details: for release kinetics after storage: stored coated pins, two-week in vitro release
Experimental: (§1) The release rate of the polymer composite film was measured by HPLC. Drug release studies were conducted using coated pins created with the same loading parameters as those used for later in vivo testing (10% (w/w) drug combinations) electrospun for 60 seconds at injection rates of 0.5 mL/h from each needle. Release rate of antibiotics from the composite polymer coating was characterized by placing coated pins in 200 μL pH 7.4 PBS buffer and incubating at 37° C. in an aluminum film-covered incubator to prevent possible light-induced drug degradation. Release media was changed at fixed time points over a period of two weeks and stored in a −20° C. freezer until analysis. Drug concentrations in release media for each day were determined via reverse-phase HPLC using a C-18 column in an Alliance HPLC system and Waters 2996 PDA detector. The mobile phase was a mixture of acetonitrile and water both mixed with 0.1% TFA acid, which was run at a gradient from (15%/85%) to (40%/60%) for a total runtime of 15 minutes per sample for the elution of Van/Rif and Lin/Rif drug loading groups. Elution of the Dap/Rif loading group was conducted using a mobile phase of (49%/51%) of acetonitrile and water both mixed with 0.1% TFA acid for a total run time of 11 minutes per sample. Concentrations of the drugs were quantified using wavelengths of 343 nm for Rif, 254 nm for Lin, 280 nm for Van and 223 nm for Dap using prepared standard curves for all three drugs. […] Quantification was performed through the derivatization of Gentamicin with ninhydrin at 95° C. for 15 minutes and detection with a Biotek Synergy2 plate reader.
Long-term efficacy of the antimicrobial activity was tested by storing electrospun pins at room temperature for 6 weeks, −20° C. for 6 weeks, and −80° C. for 8 months. Coated pins were protected from light during storage. These pins were then used in the same zone of inhibition assay as described hereinabove.
Drug release studies were conducted using coated pins created with the same loading parameters as detailed above. Release kinetics of antibiotics from the composite coating were characterized by placing coated pins in 200 μL of phosphate buffer saline (PBS, pH 7.4) at 37° C. Release media was changed daily over a period of two weeks and stored at −20° C. until analysis. Drug concentrations in release media were measured on days 1, 2, 3, 5, 7, 10 and 14 using a Waters Alliance 2690 HPLC system (Waters Corporation, Milford, Mass.) equipped with an Accucore RP-MS C18 column (100 mm×2.1 mm; Thermo Fisher Scientific) and a Waters 2996 PDA detector. The elution was carried out with a mobile phase of water and acetonitrile both mixed with 0.1% TFA at a flow rate of 1 mL/min at ambient temperature using a linear gradient elution program of 85% water to […] in 15 minutes. Concentrations of the drugs were quantified using wavelengths for Van (280 nm), Lin (254 nm), Dap (224 nm) and Rif (263 nm).

[5] = In vitro release of Gentamicin from PLGA nanofibers / composite coating (ninhydrin); type: physicochemical
Experimental: The drug groups tested all included Rifampin (Rif), and the second drug was varied among linezolid (Lin), vancomycin (Van), and daptomycin (Dap). Each drug group combination of Rif and a secondary drug was tested with five pin groups as shown in Sets 1-3 (FIG. 1E). To load the antibiotics into the polymer nanofibers or film, Rif and Lin were dissolved in corresponding 10% w/w PLGA or PCL polymer solution prior to electrospinning. Van or Dap was first dissolved in dimethyl sulfoxide (DMSO) to form a 20% (w/w) solution before being added into their respective polymer solutions to form a suspension. This suspension can be electrospun in a relatively uniform fashion. Suspensions using water as a solvent were also produced using the model drug Gentamicin (Gent). Briefly, Gent was dissolved in DI water to form a 30% (w/w) solution before being added to a PLGA solution dissolved in HFIP. The suspension was stabilized through prolonged sonication and vortexing prior to electrospinning.
as §1, with “drugs. As an example, FIG. 3A and FIG. 3B show the in vitro release profiles of Lin and Rif from the composite coating on titanium K-wire implants.” for “drugs.”

Compound: CC(=O)NC[C@H]1CN(c2ccc(N3CCOCC3)c(F)c2)C(=O)O1 [Lin, linezolid]
- antimicrobial activity (zone of inhibition) after storage versus freshly prepared coatings [1]: no significant loss of antimicrobial activity
- MIC [2]: 2 µg/mL
- complete release from the nanofiber-hydrogel composite sheet [3]: ≤ 3 days
- release from the nanofiber-hydrogel composite sheet within the first 24 hours [3]: 70%
- release kinetics after storage [4]: no difference in the release kinetics

Compound: CCCCCCCCCC(=O)N[C@@H](Cc1c[nH]c2ccccc12)C(=O)N[C@H](CC(N)=O)C(=O)N[C@@H](CC(=O)O)C(=O)N[C@@H]1C(=O)NCC(=O)N[C@@H](CCCN)C(=O)N[C@@H](CC(=O)O)C(=O)N[C@H](C)C(=O)N[C@@H](CC(=O)O)C(=O)NCC(=O)N[C@H](CO)C(=O)N[C@@H]([C@H](C)CC(=O)O)C(=O)N[C@@H](CC(=O)c2ccccc2N)C(=O)O[C@@H]1C [Dap, daptomycin]
- antimicrobial activity (zone of inhibition) after storage versus freshly prepared coatings [1]: no significant loss of antimicrobial activity
- MIC [2]: 0.25 µg/mL
- release kinetics after storage [4]: no difference in the release kinetics

Compound: CO[C@H]1/C=C/O[C@@]2(C)Oc3c(C)c(O)c4c(O)c(c(/C=N/N5CCN(C)CC5)c(O)c4c3C2=O)NC(=O)/C(C)=C\C=C\[C@H](C)[C@H](O)[C@@H](C)[C@@H](O)[C@@H](C)[C@H](OC(C)=O)[C@@H]1C [Rif, Rifampin]
- antimicrobial activity (zone of inhibition) after storage versus freshly prepared coatings [1]: no significant loss of antimicrobial activity
- MIC [2]: 0.5 µg/mL
- complete release from the nanofiber-hydrogel composite sheet [3]: ≤ 14 days
- release from the nanofiber-hydrogel composite sheet within the first 24 hours [3]: 70%
- time Rif remains above the MIC, tuned by PCL molecular weight or PCL layer thickness ([4]; in vitro release from composite coating): 2 to 5 days
- release kinetics after storage [4]: reduced after storage at room temperature for six weeks, but not when the pins were stored at −20 °C

Compound: Gentamicin
- MIC of XEN36 [2]: roughly 10 μg/mL
- Gentamicin release profile ([5]; 50:50 PLGA): sustained release
- release of Gentamicin above the MIC, controlled by polymer choice ([5]; 50:50 versus 75:25 PLGA): 2 to 14 days
- Gentamicin release profile ([5]; 75:25 PLGA): only a burst release
- Day 1 release of Gentamicin ([5]; PLGA nanofibers alone): 80 % of total loading
- Day 1 release of Gentamicin ([5]; PLGA nanofibers embedded in PCL film layer): less than 45 % of total loading
- time Gentamicin concentration at MIC could be sustained ([5]; in vitro release from PLGA nanofibers): up to 14 days
